Three compounds from PMC3731320, “Identification of Benzimidazole Diamides as Selective Inhibitors of the Nucleotide-Binding Oligomerization Domain 2 (NOD2) Signaling Pathway” (PLoS ONE, 2013) can be followed below.

The subject of test [1] is HCT116 cells. The test can be described thus: Uptake of MDP-rhodamine by HCT116 cells (fluorescence microscopy). The following applies: GSK669 up to 20 μM, chlorpromazine 20 μM, 1–4 hour. In kind it is cell-based, human. The method, then: HCT116 cells seeded onto glass cover-slips at low density were pre-treated with GSK669 or the endocytosis inhibitor chlorpromazine for 30 minutes before addition of 2.5 μg/mL MDP-rhodamine. Live cells were viewed periodically over 6-hours incubation at 37 °C using a Nikon eclipse TE2000-E fluorescent inverted microscope fitted with a CCTV camera and rhodamine filter.

The subject of test [2] is TLR2. Nature of the test: Pam2CSK4-stimulated IL-8 release in primary human monocytes. The test is classed as cell-based. The following applies: Pam2CSK4 100 pg/mL; GSK717 0.5–16 μM, RIP2 inhibitor 0.05–1.6 μM.
In test [3] the test system is NOD2. The test can be described thus: MDP-stimulated cytokine release in primary human monocytes. In kind it is cell-based. As to conditions: MDP 0.1 μg/mL. The protocol: (§1) […] The concentration of IL-1β, IL-6 and TNFα in medium samples collected after 24-hour treatment was determined using the MS6000 human pro-inflammatory-4 II tissue culture kit (Meso Scale Discovery). The IL-8 concentration was determined by HTRF.

The test system of test [4] is NOD2 and TLR2. The test can be described thus: IL-8 release in primary human monocytes co-stimulated with MDP and Pam2CSK4 (NOD2-TLR2 synergy). In kind it is cell-based. As to conditions: MDP 0.1 μg/mL + Pam2CSK4 100 pg/mL; listed as GSK717. The method, then: as §1
For test [5], the system named is NOD2. Nature of the test: MDP-stimulated IL-8 release in 293/hNOD2 cells (HTRF). The test is classed as cell-based, human. As to conditions: Homo sapiens. The protocol: (§2) After 24 hours the amount of IL-8 secreted into the medium was determined by homogeneous time resolved fluorescence (HTRF) assay by the direct addition of a 1:1 mix of europium cryptate and XL665-conjugated anti-IL-8 antibodies according to the manufacturer's instructions (Cisbio).

Test [6] concerns TNFR1. The test can be described thus: TNFα-stimulated (TNFR1-induced) IL-8 release in 293/hNOD2 cells. The test is classed as cell-based, human. The following applies: Homo sapiens; IL-8 end-point; 20 ng/mL rhTNFα; read-out: IC50 293/hNOD2 TNFα. The method, then:
as §2

The subject of test [7] is NOD1. Nature of the test: Tri-DAP-stimulated IL-8 release in HCT116 cells (endogenous NOD1). The test is classed as cell-based, human. The protocol: (§3) Compound activity on endogenous NOD1 and NOD2 receptors was determined by inhibition of either Tri-DAP or MDP-stimulated IL-8 release, respectively, using HCT116 human colon carcinoma cells. […] The cells were maintained in DMEM high glucose medium supplemented with 25 mM HEPES and 10% FBS. For assay, cells were seeded into 96 well plates (90,000 cells/well) in DMEM containing 1% FBS and pre-incubated with compounds for 1 hour before addition of either 1 μg/mL MDP or 25 μg/mL Tri-DAP. The level of IL-8 released into medium after 24-hour incubation was determined by HTRF assay as described above and fluorescence measured on an Envision model 2102 multilabel plate reader (Perkin Elmer).

Test [8] has as its system TLR2. The test can be described thus: Pam2CSK4-stimulated IL-8 release in 293/hTLR2 cells. In kind it is cell-based, human. The following applies: Homo sapiens; IL-8 end-point; 3–10 ng/mL Pam2CSK4; read-out: IC50 293/hTLR2 Pam2CSK4. The protocol:
as §2

Test [9] deals with T1, full length human FLAG-6His tagged RIP2 (Homo sapiens, UniProt O43353).
T1 construct: autophosphorylation of full length human FLAG-6His tagged RIP2; FLAG; 6His; made in house
T1 sequence (O43353 whole entry): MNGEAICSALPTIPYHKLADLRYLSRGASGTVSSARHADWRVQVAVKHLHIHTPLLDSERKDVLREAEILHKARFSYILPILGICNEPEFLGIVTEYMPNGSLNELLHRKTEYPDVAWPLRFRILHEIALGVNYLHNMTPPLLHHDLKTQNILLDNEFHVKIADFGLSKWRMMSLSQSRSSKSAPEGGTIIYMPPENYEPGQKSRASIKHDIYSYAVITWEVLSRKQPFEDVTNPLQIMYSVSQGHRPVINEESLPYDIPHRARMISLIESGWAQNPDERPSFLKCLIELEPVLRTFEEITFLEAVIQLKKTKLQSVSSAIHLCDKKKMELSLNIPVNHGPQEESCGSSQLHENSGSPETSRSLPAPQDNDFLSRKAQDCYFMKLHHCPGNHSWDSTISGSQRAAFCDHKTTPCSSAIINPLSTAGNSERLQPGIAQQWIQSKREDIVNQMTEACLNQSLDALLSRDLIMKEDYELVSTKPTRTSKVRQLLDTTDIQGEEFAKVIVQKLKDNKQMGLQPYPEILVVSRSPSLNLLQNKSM
The test can be described thus: RIP2 kinase autophosphorylation assay (ADP-Glo). The test is classed as biochemical. The following applies: autophosphorylation of RIPK2; 10 μM ATP. The method, then:
Direct effects of compounds on RIP2 kinase activity was determined by autophosphorylation of full length human FLAG-6His tagged RIP2 expressed and purified from baculovirus. Enzyme was pre-incubated with compounds in assay buffer (50 mM HEPES pH 7.5, 25 mM MgCl2, 0.05%[w/v] CHAPS, 1 mM DTT and 0.05 mg/mL BSA) in 384-well plates, and then incubated with 10μM ATP for 2 hours at room temperature. The amount of ADP generated was measured using the ADP-Glo universal ADP detection assay for kinases (Promega) and luminescence quantified on a ViewLux imager.

Test [10] has as its system NOD1. Nature of the test: iE-DAP-stimulated IL-8 release in 293/hNOD1 cells (HTRF). In kind it is cell-based, human. As to conditions: Homo sapiens; IL-8 end-point; 60 ng/mL iE-DAP; read-out: IC50 293/hNOD1 iE-DAP. The protocol:
as §2
In general terms: Time-resolved FRET reads energy transfer from a long-lived donor to a nearby acceptor.

The test system of test [11] is NOD2. The test can be described thus: Western blot of MAPK phosphorylation and IκBα in MDP-stimulated 293/hNOD2 cells. As to conditions: GSK669 at 1 and 10 μM. In kind it is cell-based, human. The protocol:
Confluent cultures of 293/-hNOD1 and -hNOD2 cells in 24-well plates were serum-starved over-night. The next day, cells were pre-incubated for 1 hour with compound and then stimulated for 1 hour with either 50 μg/mL Tri-DAP or 25 μg/mL MDP, respectively. Whole cell lysates were prepared in 1X cell lysis buffer (Cell Signaling Technology) containing additional inhibitors of aspartic, cysteine and serine proteases and aminopeptidases (protease inhibitor cocktail set III, EMD Biosciences) and inhibitors of multiple phosphatases (phosphatase inhibitor cocktail sets II and III, Sigma-Aldrich). The levels of phosphorylated and total p38, JNK, ERK1/2 and total IκBα were determined by immunoblotting of ∼20 μg protein per sample using the following primary antibodies: phospho-p38 MAPK (12F8, #4631), p38 MAPK (#9212), phospho-JNK (#9251), JNK (#9252) and IκBα (#9242) all purchased from Cell Signaling Technology, and phospho-ERK1/2 (sc-7383) and ERK1/2 (sc-94) antibodies from Santa Cruz Biotechnology.
On the technique in general: Immunoblotting shows a protein as a band on a membrane.

Test [12] concerns NOD2. The test can be described thus: MDP-stimulated IL-8 release in HCT116 cells (endogenous NOD2). The test is classed as cell-based, human. The method, then: as §3

SMILES strings stand for the structures. Entries after “also recorded” stand apart in the source; their conditions may differ.

In the case of `CN(C)CCCN1c2ccccc2Sc2ccc(Cl)cc21` [chlorpromazine, reference compound], in test [1], the “effect on uptake of Rhodamine-MDP into cells” value was “intracellular punctate fluorescence did not develop”.

Take `CN(CCc1nc2ccccc2n1CC(=O)Nc1ccc2c(c1)CCC2)C(=O)c1ccccc1` [Compound 29, N-(2-(1-(2-((2,3-dihydro-1H-inden-5-yl)amino)-2-oxoethyl)-1H-benzo[d]imidazol-2-yl)ethyl)-N-methylbenzamide]: in test [2], the “effect on Pam2CSK4-stimulated IL-8 release in monocytes” value is “but not Pam2CSK4-stimulated IL-8 release”. Besides, in test [3] (GSK717 0.5–16 μM, RIP2 inhibitor 0.05–1.6 μM), the “effect on MDP-stimulated IL-8 release in monocytes” value is “prevented”. For the same compound, the “effect on MDP-stimulated cytokine secretion, single concentration” value in [3] (primary human monocytes, compound 5 μM, IL-1β, IL-6, IL-8, TNFα, 24 hours) is on record as “abrogated the stimulatory effect of MDP”. Moreover, the “effect on synergistic IL-8 response of co-stimulated monocytes” value in test [4] was “blocks synergy between NOD2 and TLR2; also recorded: abolished the clear synergistic IL-8 response”.

In the case of `CC(C)c1ccc(NC(=O)Cn2c(CCNC(=O)c3ccccc3)nc3ccccc32)cc1` [Compound 2, N-(2-(1-(2-((4-isopropylphenyl)amino)-2-oxoethyl)-1H-benzo[d]imidazol-2-yl)ethyl)benzamide], the IC50 was 5 µM in [5] (IL-8 end-point, 30 ng/mL MDP, read-out: IC50 293/hNOD2 MDP); 4 ± 3.9 µM in [5] (MDP-stimulated IL-8 production assay in 293/hNOD2 cells, Figures 4 and 5, read-out: NOD2 IC50); more than 100 µM in test [6]; more than 50 µM in [7] (Homo sapiens, HCT-116, IL-8 end-point, 25 μg/mL Tri-DAP); more than 100 µM in test [8]; more than 100 µM in test [9]. Moreover, the IC50 was more than 50 µM in [10] and 1.1 ± 0.7 µM in test [12] (Homo sapiens, HCT-116, IL-8 end-point, 1 μg/mL MDP). The “effect on IL-8 secretion induced by Tri-DAP in HCT116 cells” value in test [7] (Tri-DAP 25 μg/mL, 1 hour pre-treatment) is on record as “had no effect”. The “effect on MDP-induced p-p38, p-JNK and total IκBα” value in test [11] was “more modest inhibitory effects”. The “effect on IL-8 secretion induced by MDP in HCT116 cells” value in test [12] (MDP 1 μg/mL, 1 hour pre-treatment) is given as “dose-dependently inhibited”.
